Results reported in patent US7371921B2, “Nonhuman animal model non-responsive to mycoplasma-origin lipoprotein/lipopeptide” (Japan Science and Technology Agency, priority 2000, dated 2008).

Tests used:
NF-êB = NF-êB activation in peritoneal macrophages (nucleoprotein binding to NF-êB DNA probe, electrophoresis, autoradiography); assay type: cell-based, mouse; conditions: 0.1 ng/ml JBT3002 or 0.3 ng/ml MALP-2 for 20 or 40 minutes, FIG. 5
Procedure: (§1) Each of wild-type (wild-type), TLR6 knockout (TLR6−/−) and TLR2 knockout (TLR2−/−) mice were intraperitoneally injected with 2 ml of 4% thioglycollate medium (DIFCO). Three days later, peritoneal exudate cells were isolated from the peritoneal cavity of each mouse. These cells were cultured in RPMI1640 medium (GIBCO) supplemented with 10% fetal bovine serum (GIBCO) for 2 hours at 37° C. and washed with ice-cold Hank's buffered salt solution (HBSS; GIBCO) to remove nonadherent cells. Adherent cells were used as peritoneal macrophages for the following experiments.
It is known that TLR signals activate IRAK, which is serine/threonine kinase, via an adapter molecule MyD88 and then activate MAP kinase and NF-êB (Immunity 11, 115-122, 1999). In addition, it is also known that a mycoplasma-derived lipoprotein/lipopeptide causes vital reaction via TLR2 and MyD88 signaling pathways (J. Immunol. 164, 554-557, 2000). Consequently, with wild-type, TLR6 knockout and TLR2 knockout mice, whether a bacteria-derived lipoprotein/lipopeptide activates intracellular signaling molecules was examined. Peritoneal macrophages (1×10^6 cells) of wild-type (wild-type) and TLR6 knockout (TLR6−/−) and TLR2 knockout (TLR2−/−) mice prepared in Example 2 were stimulated with 0.1 ng/ml JBT3002 or 0.3 ng/ml MALP-2 for 20 or 40 minutes, and nucleoproteins were extracted from macrophages of each mouse and incubated with a specific probe containing DNA binding site of NF-êB, then subjected to electrophoresis and visualized by autoradiography (FIG. 5).

peritoneal macrophages [1] = experiment: TNF-á production by peritoneal macrophages stimulated with lipopeptide; assay type: cell-based, mouse; conditions: 24 hours, various concentrations, FIG. 4
Procedure: as §1
(§2) Responsiveness of peritoneal macrophages derived from a wild-type mouse or a TLR6 knockout mouse to lipopeptide was examined with synthetic Gram negative bacteria-derived lipopeptide JBT3002 and synthetic mycoplasma-derived lipopeptide MALP-2. Peritoneal macrophages (5×10^4 cells) of wild-type and TLR6 knockout mice prepared in Example 2 were cultured for 24 hours together with various concentrations of JBT3002 (provided by Dr. Z. Dong) or MALP-2 (provided by Dr. P. F. Muhlradt) shown in FIG. 4, and stimulated. When culture was completed, the production amounts of TNF-á (TNFá) and NO2^− (NO) in culture supernatants were measured (FIG. 4). NO2^− was measured by the Greiss method using NO2/NO3 Assay Kit (Dojindo Laboratories).

peritoneal macrophages [2] = experiment: NO2^− production by peritoneal macrophages stimulated with lipopeptide (Greiss method); assay type: cell-based, mouse; conditions: 24 hours, various concentrations, FIG. 4
Procedure: as §1, §2

peritoneal macrophages [3] = experiment: TNFá production by peritoneal macrophages in response to lipoprotein, LPS or PGN (ELISA); assay type: cell-based; conditions: macrophages from TLR6 knockout mouse (TLR6−/−) compared with wild-type; 24 hours; 10 μM lipoprotein, 100 ng/ml LPS, various concentrations of PGN; FIG. 3
Procedure: as §1
Therefore, responsiveness of TLR6 knockout mouse to these LPS, lipoprotein derived from Spirochaeta, and peptidoglycan derived from Staphylococcus aureus was examined. Peritoneal macrophages (5×10^4 cells) of wild-type and TLR6 knockout mice prepared in Example 2 were cultured for 24 hours together with 10 μM B. burgdorferi-derived lipoprotein OspA or OspC, 10 μM T. pallidum-derived lipoprotein 17-kDa (17) or 47-kDa (47), 100 ng/ml LPS, or various concentrations of peptidoglycan (PGN) shown in FIG. 3. When culture was completed, concentrations of TNFá in culture supernatants were measured by ELISA respectively.

[4] = macrophages from TLR6 knockout mouse (TLR6−/−)
[5] = macrophages from wild-type mouse

Molecule: MALP-2
- activation of NF-êB (NF-êB; macrophages from TLR2 knockout mouse (TLR2−/−)): no activation was observed
- activation of NF-êB (NF-êB; [4]): no activation in response to MALP-2 was observed
- activation of NF-êB (NF-êB; [5]): activation of NF-êB in response to the stimulation with MALP-2 or JBT3002 was observed
- production amount of TNF-á (peritoneal macrophages [1]; [4]): produced no TNF-á and NO2^−
- production amount of TNF-á (peritoneal macrophages [1]; [5]): increased the production amounts of TNF-á (TNFá) and NO2^− (NO) in a manner dependent on doses
- production amount of NO2^− (peritoneal macrophages [2]; [4]): produced no TNF-á and NO2^−
- production amount of NO2^− (peritoneal macrophages [2]; [5]): increased the production amounts of TNF-á (TNFá) and NO2^− (NO) in a manner dependent on doses

Molecule: OspA: B. burgdorferi-derived lipoprotein
- TNFá in culture supernatant (peritoneal macrophages [3]): approximately the same amount of TNFá as macrophages derived from a wild-type mouse

Molecule: peptidoglycan [PGN]
- TNFá in culture supernatant (peritoneal macrophages [3]): approximately the same amount of TNFá as macrophages derived from a wild-type mouse

Molecule: lipopolysaccharide [LPS]
- TNFá in culture supernatant (peritoneal macrophages [3]): approximately the same amount of TNFá as macrophages derived from a wild-type mouse

B1: OspC: B. burgdorferi-derived lipoprotein (protein, UniProt Q07337 19-210, looked up)
Outer surface protein C: CNNSGKDGNTSANSADESVKGPNLTEISKKITDSNAVLLAVKEVEALLSSIDEIAAKAIGKKIHQNNGLDTENNHNGSLLAGAYAISTLIKQKLDGLKNEGLKEKIDAAKKCSETFTNKLKEKHTDLGKEGVTDADAKEAILKTNGTKTKGAEELGKLFESVEVLSKAAKEMLANSVKELTSPVVAESPKKP
- TNFá in culture supernatant (peritoneal macrophages [3]): approximately the same amount of TNFá as macrophages derived from a wild-type mouse
